Laboratory results from PMC5556071, “ATR inhibition facilitates targeting of leukemia dependence on convergent nucleotide biosynthetic pathways” (Nature Communications, 2017).
“And” between values parts separate entries of the source, which are not always exact repeats. Equal entries are not always repeated.

Experiments:
[1] = tested on: CEM cells; test: Targeted LC-MS/MS-MRM of de novo and salvage dCTP biosynthesis (nucleotide pools and newly replicated DNA); type: cell-based, human; set-up: key to Substrate utilization Glucose / Substrate utilization dC: ↓: partial decrease/inhibition; ↓↓↓: nearly complete inhibition; ↑: increase; ⟷: no change
Method: Cells were transferred into RPMI-1640 without glucose and supplemented with 10% dialyzed FBS (Gibco) containing the following labeled substrates: precursors for de novo [U-^13C6]glucose (Sigma-Aldrich, 389374) at 11 mM; precursors for purine salvage [U-^13C10,^15N5]dA (Cambridge Isotopes, CIL 3896), [^15N5]dA (Cambridge Isotopes, NLM-3895) and [^15N5]dG (Cambridge Isotopes, NLM-3899) at 5 µM or as indicated; and precursors for pyrimidine salvage: [U-^13C9,^15N3]dC (Silantes, 124603602) and [U-^13C10,^15N2]dT (Cambridge Isotopes, CNLM-3902) at 5 µM and [^15N2]orotate (Cambridge Isotopes, NLM-1048) at indicated concentrations. The cells were incubated for 12 h or as indicated before sample collection and processing.
The rates of dCTP incorporation into the DNA were determined using linear regression with procedure GLM in SAS (v. 9.4). DNA % label was transformed using a shifted log addition of 1 due to the presence of zeros in the data set. Rates were calculated using the slope of the regression line for the log transformed data and are presented in the table with the associated standard errors, along with the ratio between the rate of incorporation into DNA by the de novo and salvage pathways (Table 1).
Cell cycle synchronization. Cells were treated with a CDK4/6 inhibitor, Pablociclib or PD-0332991 (Selleckchem, S1116) for 18 h to synchronize them in the G1 phase. Subsequently, cells were washed twice with PBS containing 2% FBS (Omega Scientific) and released into fresh media. […]
Clinical Microarray Core on an Illumina HiSeq3000 using the SeqCap EZ Exome Enrichment Kit v3.0 (Roche).
Reads were mapped to UCSC hg19 (bwa-mem), deduplicaed (PicardTools), and subjected to base quality score recalibration and realignment around known indels according to the Broad Institute Genome Analysis Toolkit (GATK) Best Practices v3.0. Variants in genes associated with nucleotide biosynthesis were identified using the GATK HaplotypeCaller, and annotated with Oncotator (http://portals.broadinstitute.org/oncotator/). dNTP sample processing. 0.5 – 1 x 10^6 cells were collected into 1.5 mL microcentrifuge tubes and centrifuged (450 x g, 4 min, 4 °C). The supernatant was carefully aspirated and the cells were washed twice with 1 mL of cold PBS, followed each time by centrifugation (450 x g, 4 min 4 °C). The PBS were aspirated.
Thereafter, the pellets were treated with 10 µL of 10% trifluoroacetic acid with internal standards (1 µM […]
s, and incubated on ice for 10 min. 40 µL of 500 mM ammonium acetate, pH = 9.3, with the same internal standard (1 µM [15N3]dCMP and [15N3]dCTP) was then added and the samples were vigorously vortexed again for 30 s. The samples were centrifuged (14,000 x g, 10 min, 4 °C) to remove cell debris. The supernatants (~ 40 µL) were transferred into HPLC injector vials. Stock solutions (10 mM) of rCTP, rCDP, dCMP, dCDP, and dCTP (Sigma Aldrich) were prepared individually in water, and stored at –20 °C before use to generate calibration standards. Calibration standards were prepared and mixed together in water with internal standards (1 µM [15N3]dCMP and [15N3]dCTP) to make working stock concentrations in 100 nM – 100 µM range.
Calibration standards were diluted 10-fold into the same nucleotide extraction solution of 10% TFA/500 mM ammonium acetate (1:4, v/v) with internal standards (1 µM [15N3]dCMP and [15N3]dCTP) to give a final concentration in 10 nM – 10 µM. Nucleotide and calibration samples were processed together to minimize […]
DNA sample processing. Genomic DNA from 0.5 – 1 x 10^4 cells was extracted using the Quick-gDNA MiniPrep kit (Zymo Research, D3021) and hydrolyzed to nucleosides using the DNA Degradase Plus kit (Zymo Research, E2021), following manufacturer-supplied instructions. In the final step of DNA extraction, 50 µL of […]
water was used to elute the DNA into 1.5 mL microcentrifuge tubes. A nuclease solution (5 µL; 10X buffer/DNA Degradase Plus™/water, 2.5/1/1.5, v/v/v) was added to 20 µL of the eluted genomic DNA in an HPLC injector […]
vial. […]

[2] = tested on: CEM cells; test: Phospho-histone 3 (H3 pS10) staining, flow cytometry; type: cell-based, human; settings: 500 nM 3-AP, 1 µM VE-822, 1 µM dCKi, 24 h
Method: Phospho-histone 3 staining. Cells were treated with drug combinations of three drugs. 24 h following treatment, cells were fixed and permeabilized with 1% PFA and 1X Perm/wash solution respectively.
Following fixation and permeabilization, cells were stained intracellularly with pH3 Ser10 antibody conjugated to AF647 (Cell signaling, #12230). Cells were then washed with PBS, stained with 0.5 mL of DAPI for DNA content (1 µg/mL in 2% FBS in PBS) before data acquisition. […]
FACS analysis. All flow cytometry data were acquired on five-laser LSRII cytometers (BD) for analysis, and analyzed using FlowJo software (Tree Star). The cell cycle durations were calculated using equations for multiple time-point measurements according to previously published methods (Terry and White, 2006).

[3] = CEM 12 h, 1 uM VE-822, 1 uM DI-82, 500 nM 3-AP, #1-#3
[4] = CEM after release from G1 arrest

CNCc1ccc(-c2cc(-c3nc(-c4ccc(S(=O)(=O)C(C)C)cc4)cnc3N)on2)cc1 [VE-822]
reduction in overall DNA labeling compared to untreated cells ([1]; 12 h time point after release from G1 arrest): 30%
% sum abundance, de novo DNA-C, mass increase in nucleobase +0, in deoxyribose +3 [1, 3]: 0.14% and 0.15% and 0.16%
% sum abundance, de novo DNA-C, mass increase in nucleobase +0, in deoxyribose +4 [1, 3]: 0.43% and 0.45% and 0.46%
% sum abundance, de novo DNA-C, mass increase in nucleobase +0, in deoxyribose +5 [1, 3]: 7.38% and 7.69% and 7.03%
% sum abundance, de novo DNA-C, mass increase in nucleobase +1, in deoxyribose +3 [1, 3]: 0.00%
% sum abundance, de novo DNA-C, mass increase in nucleobase +1, in deoxyribose +4 [1, 3]: 0.06% and 0.0569% and 0.066%
% sum abundance, de novo DNA-C, mass increase in nucleobase +1, in deoxyribose +5 [1, 3]: 0.95% and 0.96% and 0.91%
% sum abundance, de novo DNA-C, mass increase in nucleobase +2, in deoxyribose +4 [1, 3]: 0.0654% and 0.0348% and 0.0476%
% sum abundance, de novo DNA-C, mass increase in nucleobase +2, in deoxyribose +5 [1, 3]: 0.64% and 0.67% and 0.62%
% sum abundance, de novo DNA-C, mass increase in nucleobase +3, in deoxyribose +4 [1, 3]: 0.00%
% sum abundance, de novo DNA-C, mass increase in nucleobase +3, in deoxyribose +5 [1, 3]: 0.16% and 0.17% and 0.14%
% sum abundance, de novo DNA-C, mass increase in nucleobase +4, in deoxyribose +4 [1, 3]: 0.00%
% sum abundance, de novo DNA-C, mass increase in nucleobase +4, in deoxyribose +5 [1, 3]: 0.00%
% sum abundance, salvage DNA-C, mass increase in nucleobase +5, in deoxyribose +0 [1, 3]: 0.00%
% sum abundance, salvage DNA-C, mass increase in nucleobase +5, in deoxyribose +4 [1, 3]: 0.00%
% sum abundance, salvage DNA-C, mass increase in nucleobase +5, in deoxyribose +5 [1, 3]: 0.00%
% sum abundance, salvage DNA-C, mass increase in nucleobase +6, in deoxyribose +0 [1, 3]: 0.00%
% sum abundance, salvage DNA-C, mass increase in nucleobase +6, in deoxyribose +4 [1, 3]: 0.00%
% sum abundance, salvage DNA-C, mass increase in nucleobase +6, in deoxyribose +5 [1, 3]: 0.09%
% sum abundance, salvage DNA-C, mass increase in nucleobase +7, in deoxyribose +0 [1, 3]: 0.00%
% sum abundance, salvage DNA-C, mass increase in nucleobase +7, in deoxyribose +4 [1, 3]: 0.06% and 0.07%
% sum abundance, salvage DNA-C, mass increase in nucleobase +7, in deoxyribose +5 [1, 3]: 1.08% and 1.19% and 1.11%
% sum abundance, unlabeled DNA-C, mass increase in nucleobase +0, in deoxyribose +0 [1, 3]: 78.84% and 78.52% and 79.31%
% sum abundance, unlabeled DNA-C, mass increase in nucleobase +0, in deoxyribose +1 [1, 3]: 4.53% and 4.48% and 4.46%
% sum abundance, unlabeled DNA-C, mass increase in nucleobase +0, in deoxyribose +2 [1, 3]: 0.68% and 0.72%
% sum abundance, unlabeled DNA-C, mass increase in nucleobase +1, in deoxyribose +0 [1, 3]: 4.47% and 4.26% and 4.33%
% sum abundance, unlabeled DNA-C, mass increase in nucleobase +1, in deoxyribose +1 [1, 3]: 0.21% and 0.22% and 0.24%
% sum abundance, unlabeled DNA-C, mass increase in nucleobase +1, in deoxyribose +2 [1, 3]: 0.00%
% sum abundance, unlabeled DNA-C, mass increase in nucleobase +2, in deoxyribose +0 [1, 3]: 0.24% and 0.27% and 0.28%
% sum abundance, unlabeled DNA-C, mass increase in nucleobase +2, in deoxyribose +1 [1, 3]: 0.00%
% sum abundance, unlabeled DNA-C, mass increase in nucleobase +2, in deoxyribose +2 [1, 3]: 0.00%
% sum abundance, unlabeled DNA-C, mass increase in nucleobase +3, in deoxyribose +0 [1, 3]: 0.00%
% sum abundance, unlabeled DNA-C, mass increase in nucleobase +3, in deoxyribose +1 [1, 3]: 0.00%
% sum abundance, unlabeled DNA-C, mass increase in nucleobase +4, in deoxyribose +0 [1, 3]: 0.00%
De novo: rate of dCTP incorporation into newly replicated DNA (slope ± standard error of regression line) [1, 4]: 0.17 ± 0.01 arbitrary unit
Ratio (salvage/de novo) [1, 4]: 0.85
Salvage: rate of dCTP incorporation into newly replicated DNA (slope ± standard error of regression line) [1, 4]: 0.14 ± 0.01 arbitrary unit
free dCTP levels or their biosynthetic origins ([1]; after release from G1 arrest): did not alter
decrease of [13C6]glucose labeling of the rCDP pool ([1]; asynchronous CEM, 12 h): 40%
reduction of dCK activity (contribution of labeled [13C9,15N3]dC to intracellular dCMP) ([1]; asynchronous CEM, 12 h): ~ 33%
Substrate utilization Glucose ([1]; summary Fig. 2g, CEM cells): ↓
Substrate utilization dC ([1]; summary Fig. 2g, CEM cells): ↓
H3 pS10 plot, upper percentage (gate not given) [2]: 6.5%
